Reference: US8795634B2, “Absorption of therapeutic agents across mucosal membranes or the skin” (Critical Pharmaceuticals Limited, priority 2008, dated 2014)

Experiments:
[1] = Blood glucose after intranasal insulin with Solutol HS15 or its individual components (Example 8); type: in vivo, male Sprague Dawley rats; details: insulin 4 IU/kg intranasal; PEG 600 10% w/v, PEG-HSA 10% w/v, HSA 0.37%, HSA-PEG-HSA 2%
Protocol: The PEG-HSA and HSA-PEG-HSA were prepared by refluxing polyethylene glycol 600 (PEG 600) and 12-Hydroxystearic acid (HSA) under argon at 120° C. using methane sulfonic acid. All chemicals were purchased from Sigma Aldrich.
Four components were tested in vivo. The following components were dissolved into 0.063M phosphate buffer at the concentrations below: • PEG 600—10% w/v solution • PEG-HSA—10% w/v Solution • HSA—0.37% solution • HSA-PEG-HSA—2% solution
The lower concentrations of HSA and HSA-PEG-HSA were used due to restricted solubility of these materials.
The components dissolved in phosphate buffer were then used to prepare 1 mg/mL insulin solutions and administered intranasally to male Sprague Dawley rats at a rate of 4 IU/kg. All formulations were administered with a Gilson pipette and the tip was inserted approximately 5 mm into the nostril. The animals were housed in limited access rooms where the temperature and humidity were maintained at 21° C.±2° C. and 55%±15% relative respectively; the rooms were lit with artificial light for 12 hours each day. Blood samples were collected from the tail vein of the rats at 0 min (Pre-dose) and 5, 15, 30, 60 and 120 minutes after administration into heparinized tubes, centrifuged and the plasma collected. Blood glucose was measured immediately at each sampling point using a one touch Ultra 2 glucose meter (LifeScan, UK).

[2] = Blood glucose after intranasal insulin in Solutol HS15 solutions (Example 1); type: in vivo, Sprague Dawley rats; details: control insulin solutions, without Solutol HS15
Protocol: The formulations were then administered intranasally to Sprague Dawley rats at 4 IU/kg and blood samples taken at frequent intervals up to 2 hours after administration. Blood glucose was measured using a standard glucose meter and insulin determined in the plasma by an enzyme linked immunosorbant assay (ELISA).
A group of rats was also administered with insulin dissolved in PBS via subcutaneous injection as comparison to the intranasal doses.

Molecule	drop in blood glucose levels [1]	decrease in plasma glucose levels [2]
CCCCCCC(O)CCCCCCCCCCC(=O)O (centres unmarked) [HSA, 12-Hydroxystearic acid]	did not	
insulin: Insulin (available from Sigma-Aldrich)		15%
